“Also recorded” adds a separate entry of the source.
Assays:
15N-bOBP = target: T1, 15N-bOBP (Bos taurus, UniProt P07435); test: NMR binding studies (1H,15N-HSQC titration); details: 200 μM 15N-bOBP alone or in presence of 1 mM and 2 mM fatty acid, pH 6.5, 25° C.
T1 construct: 6xHis (N, cleaved yes); Thioredoxin (Trx) (N, cleaved yes); TEV cleavage site (N, cleaved yes); made in house; host or cells: E. coli BL21 (M9 minimal medium for 15N labelling)
T1 sequence (P07435 with tags, fused parts or gaps): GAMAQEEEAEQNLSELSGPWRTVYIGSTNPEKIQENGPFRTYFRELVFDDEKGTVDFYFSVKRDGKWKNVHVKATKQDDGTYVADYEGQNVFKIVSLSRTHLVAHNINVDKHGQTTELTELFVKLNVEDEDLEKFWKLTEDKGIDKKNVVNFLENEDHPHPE
Description: NMR binding studies. Overlay of ^1H, […] spectra of ^15N-bOBP alone and in presence of 5- and 10-fold excess of (E)-12-oxoheptadec-10-enoic acid. Arrow and inlet show CSP of exemplary peak. Arrows and inlets show CSP of exemplary peaks.
NMR measurements were performed in 3 mm tubes at 25° C. on a Bruker Avance III spectrometer operating at 600 MHz ^1H frequencies using H/N/C triple-resonance cryogenic probes. To confirm fatty acid binding, two-dimensional ^1H, ^15N heteronuclear single quantum correlation (HSQC) spectra were recorded of 200 μM ^15N-bOBP in 20 mM phosphate buffer pH 6.5, 50 mM NaCl, 1 mM β-mercaptoethanol and 10% (v/v) D20 alone or in presence of 1 mM and 2 mM fatty acid.

[1] = test system: Balb/c mice sensitized with OVA; test: OVA allergic asthma model, intranasal application of test substance; assay type: in vivo, mouse; details: for Bronchoalveolar lavage (BAL) eosinophil numbers / AHR to increasing doses of methacholine: 12 intranasal applications d0-d26, analysis day 28; for Bronchoalveolar lavage (BAL) eosinophil numbers: FIG. 10; for AHR to increasing doses of methacholine: FlexiVent, FIG. 11
Description: Control mice were sham sensitized to PBS. Error bars reflect SEM. P values reflect one-way ANOVA, *: p value<0.05, **: p value<0.01; (FA: (E)-12-oxoheptadec-10-enaic acid).
Control mice were sham sensitized to PBS. Error bars reflect SEM. (FA: (E)-12-oxoheptadec-10-enaic acid).
Balb/c mice were first be sensitized with 10 μg OVA in Alum i.p. on day 0, 7 and 14. Three consecutive intranasal challenges with 100 μg OVA on day 25, 26 and 27, with analysis being undertaken on day 28, follows. From d0-d26 there were 12 consecutive intranasal applications of test substance. Asthma pathogenesis was assessed using methacholine lung function challenge to examine AHR as undertaken in allergic asthma patients. Furthermore, pathological manifestations such as eosinophilia was assessed. • Sensitzation: 10 μg valbumin (OVA Grade VI, Sigma, Stainheim, D) dissolved in 100 μl PBS on days 0, 7 and 14 of the assay protocol together with 100 μl (1 mg) of the adjuvant aluminium hydroxyde (Al(OH)3) (Inject Alum, Pierce, USA). • Challenge: OVA Grade V in 100 μg/mouse in 25 μl (concentration: 4 mg/ml)
Eosiniphilnumbers in the Bronchoalveolar lavage (BAL) are shown in FIG. 10. • Airway Hyperresponsivenes (AHR): Dynamic resistance and compliance (in response to increasing doses of MCh) FlexiVent results are shown in FIG. 11.

human TLR2 = target: T2, human TLR2 (Homo sapiens, UniProt O60603); test: Activation of TLR-2, NFkB induction in HEK-Blue-hTLR2 cells (SEAP reporter); assay type: cell-based; details: human TLR2 transfected HEK cells; positive control Pam3CSK4; FIG. 5
T2 construct: host or cells: HEK293 (HEK-Blue-hTLR2)
T2 sequence (O60603 21-784): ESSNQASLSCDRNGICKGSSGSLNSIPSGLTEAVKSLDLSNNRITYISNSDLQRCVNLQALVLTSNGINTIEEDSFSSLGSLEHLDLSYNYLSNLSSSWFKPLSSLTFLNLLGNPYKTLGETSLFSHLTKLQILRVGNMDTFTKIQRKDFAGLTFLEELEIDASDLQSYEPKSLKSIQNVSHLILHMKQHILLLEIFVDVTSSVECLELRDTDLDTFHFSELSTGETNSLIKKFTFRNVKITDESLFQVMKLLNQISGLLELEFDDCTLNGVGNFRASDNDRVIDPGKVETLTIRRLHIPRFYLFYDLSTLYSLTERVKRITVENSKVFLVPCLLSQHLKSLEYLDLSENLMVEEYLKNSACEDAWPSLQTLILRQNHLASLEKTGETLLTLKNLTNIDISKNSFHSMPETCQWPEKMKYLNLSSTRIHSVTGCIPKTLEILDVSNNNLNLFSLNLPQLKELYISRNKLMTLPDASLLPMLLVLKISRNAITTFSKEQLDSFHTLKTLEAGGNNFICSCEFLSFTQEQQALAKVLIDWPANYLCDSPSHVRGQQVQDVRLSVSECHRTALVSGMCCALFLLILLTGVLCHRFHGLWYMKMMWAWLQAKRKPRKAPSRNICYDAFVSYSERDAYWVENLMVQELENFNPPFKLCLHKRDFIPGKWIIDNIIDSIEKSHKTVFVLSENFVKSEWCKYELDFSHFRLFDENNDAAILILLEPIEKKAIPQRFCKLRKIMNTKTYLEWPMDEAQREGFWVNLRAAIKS
From the text: NKfB induction in HEK-hTLR2. Dotted line: PBS/DMSO (negative control); Pam3CSK4=positive control; Farm dust (Hec 20)=Cow shed dust extract>10 kDa autoclaved; Bosd2+FA=His-Trx-Bos d2+€-12-oxoheptadec-10-enaic acid; OBP+FA=bOBP+€-12-oxoheptadec-10-enaic acid; OBP=bOBP; FA=€-12-oxoheptadec-10-enaic acid.
HEK-Blue™-hTLR2 cells (InvivoGen) are obtained by co-transfection of the human TLR2 and SEAP (secreted embryonic alkaline phosphatase) genes into HEK293 cells. The SEAP reporter gene is placed under the control of the IFN-β minimal promoter fused to five NF-κB and AP-1-binding sites. Additionally, the CD14 co-receptor gene was transfected into these cells to enhance the TLR2 response. Stimulation with a TLR2 ligand activates NF-κB and AP-1, which in turn induce the production of SEAP. Levels of SEAP are determined with HEK-Blue™ Detection, a cell culture medium that allows for real-time detection of SEAP.

16HBE cells = test: TEER assay, epithelial barrier function; assay type: cell-based; details: 20 μg/ml, 24 hours after treatment; compared with cow SDE at 200 μg/ml; FIG. 6
Description: TEER Assay: 16HBE: untreated cells; Farm dust (Hec 20)=Cow shed dust extract>10 kDa autoclaved, 200 μg/ml; Bosd2+FA=His-Trx-Bos d2+(E)-12-oxoheptadec-10-enaic acid, 20 μg/ml; OBP+FA=bOBP+(E)-12-oxoheptadec-10-enaic acid, 20 μg/ml.
To examine the effect of the Lipoproteins Bos d2+FA and OBP+FA on the epithelial barrier function as measured by transepithelial electrical resistance (TEER). 16HBE (100.000 (1×10*5)) cells were seeded on transwell inserts in […] medium (MEM with Earle's salt, 10% FBS (during cultivation only, during assay no FBS), 1% L-Glutamine, 1% Penicillin/Streptomycin). After 24 hours of culture, cells were treated with the indicated compounds, and 24 hours after treatment, TEER values were determined using an EVOM2 epithelial voltohmmeter (World Precision Instruments). Cow SDE was used at 200 μg/ml, all other compounds were used at 20 μg/ml.

[2] = test system: OVA pulsed BMDCs cocultured with OT-II CD4 T cells; test: DC/T-cell interaction assay; assay type: cell-based, mouse; details: pre-treatment of BMDCs (two treatments), LPS stimulation, FIG. 8
Description: Effect of lipoprotein candidates on DC T-cell interaction: OVA pulsed BMDCs enhanced OT-II CD4 T cell number (Medium), which was prevented by pre-treatment of BMDCs with, Bos d2+FA and OPB+FA. CD4+ count: For each sample 10400 counting beads were added to tube and 5000 beads were counted for recording. CD4+ count indicates the amount of CD4+ cells contained in the volume needed to count 5000 beads. (FA: (E)-12-oxoheptadec-10-enaic acid).
DCs are professional antigen presenting cells crucial for the priming of CD4 T cells in asthma and allergy. The mouse primary bone marrow derived DCs (BMDCs) were utilized to evaluate the ability of the test substances to modulate their activation. DC activation is monitored their ability to regulate the differentiation and proliferation of OVA-specific CD4 T cells (OT-II) following DC pulsing with the OVA peptide.
For this assay, bone marrow derived DCs are isolated from C57B16 mice and put into culture. […]
Isolate bone marrow from wild-type C57BL/6 mouse and seed cells in 10 ml Petri dishes in 10 ml volume (2 million cells/dish) containing 20 ng/ml rmGM-CSF. […] Cells were then collected and counted with the help of counting beads and seeded in V bottom 96 well plates (10000 cells/well) and pulsed with OVA peptide (323-339) for 3 hours. […] 20000 stained T Cells were cocultured with DCs for […], and T Cells were then analyzed with flow cytometry.

Molecule: CCCCCC(=O)/C=C/CCCCCCCCC(=O)O [FA, (E)-12-oxoheptadec-10-enoic acid]
- chemical shift perturbations (CSP) in 1H,15N-HSQC spectra (15N-bOBP): chemical shift perturbations (CSP) which is indicative for ligand binding
- Bronchoalveolar lavage (BAL) eosinophil numbers [1]: does not have an effect
- AHR to increasing doses of methacholine [1]: an effect on AHR

Molecule: OBP+FA: Lipoprotein complex of bOBP incubated with 5 fold molar excess of (E)-12-oxoheptadec-10-enoic acid, dialysed
- NFkB induction in HEK-hTLR2 (TLR2 activation) (human TLR2): even stronger effect than the cow SDE
- transepithelial electrical resistance (TEER) (16HBE cells): stronger effect, at much lower concentration
- OT-II CD4 T cell number (CD4+ count) [2]: prevented
- Bronchoalveolar lavage (BAL) eosinophil numbers [1]: prevented allergic asthma
- AHR to increasing doses of methacholine [1]: significant effect; also recorded: prevented allergic asthma
- AHR effect compared with OBP alone ([1]; same model as E7): slightly better than for OBP alone

Molecule: Bos d2+FA: Lipoprotein complex of His-Trx-Bos d2 with (E)-12-oxoheptadec-10-enoic acid
- NFkB induction in HEK-hTLR2 (TLR2 activation) (human TLR2): even stronger effect than the cow SDE
- transepithelial electrical resistance (TEER) (16HBE cells): stronger effect, at much lower concentration
- OT-II CD4 T cell number (CD4+ count) [2]: prevented

B1: OBP: Recombinant bovine odorant-binding protein, lipocalin family, without ligand (protein, listed as Bos taurus)
chain: AQEEEAEQNLSELSGPWRTVYIGSTNPEKIQENGPFRTYFRELVFDDEKGTVDFYFSVKRDGKWKNVHVKATKQDDGTYVADYEGQNVFKIVSLSRTHLVAHNINVDKHGQTTELTELFVKLNVEDEDLEKFWKLTEDKGIDKKNVVNFLENEDHPHPE
- NFkB induction in HEK-hTLR2 (TLR2 activation) (human TLR2): had an effect as well, but higher concentrations are needed
- Bronchoalveolar lavage (BAL) eosinophil numbers [1]: prevented allergic asthma
- AHR to increasing doses of methacholine [1]: significant effect; also recorded: prevented allergic asthma
